# Like-named read-outs stand apart in the source and are kept apart here.
# What was measured:
# Format in all cases: cell-based
# [1] = system: LNCaP/AR cells; experiment: Inhibition of proliferation of LNCaP/AR prostate cancer cells (CCK-8); details: proliferation of LNCap/AR cells, 6 days, CCK-8, read-out: IC50
# [2] = biological target: T1, androgen receptor (AR) (Homo sapiens, UniProt P10275); experiment: Degradation of androgen receptor (AR) protein in VCaP cells by Western blot; details: percentage of degraded AR at 100 nM, VCaP cells, 16 h
# T1 sequence (P10275 1-920): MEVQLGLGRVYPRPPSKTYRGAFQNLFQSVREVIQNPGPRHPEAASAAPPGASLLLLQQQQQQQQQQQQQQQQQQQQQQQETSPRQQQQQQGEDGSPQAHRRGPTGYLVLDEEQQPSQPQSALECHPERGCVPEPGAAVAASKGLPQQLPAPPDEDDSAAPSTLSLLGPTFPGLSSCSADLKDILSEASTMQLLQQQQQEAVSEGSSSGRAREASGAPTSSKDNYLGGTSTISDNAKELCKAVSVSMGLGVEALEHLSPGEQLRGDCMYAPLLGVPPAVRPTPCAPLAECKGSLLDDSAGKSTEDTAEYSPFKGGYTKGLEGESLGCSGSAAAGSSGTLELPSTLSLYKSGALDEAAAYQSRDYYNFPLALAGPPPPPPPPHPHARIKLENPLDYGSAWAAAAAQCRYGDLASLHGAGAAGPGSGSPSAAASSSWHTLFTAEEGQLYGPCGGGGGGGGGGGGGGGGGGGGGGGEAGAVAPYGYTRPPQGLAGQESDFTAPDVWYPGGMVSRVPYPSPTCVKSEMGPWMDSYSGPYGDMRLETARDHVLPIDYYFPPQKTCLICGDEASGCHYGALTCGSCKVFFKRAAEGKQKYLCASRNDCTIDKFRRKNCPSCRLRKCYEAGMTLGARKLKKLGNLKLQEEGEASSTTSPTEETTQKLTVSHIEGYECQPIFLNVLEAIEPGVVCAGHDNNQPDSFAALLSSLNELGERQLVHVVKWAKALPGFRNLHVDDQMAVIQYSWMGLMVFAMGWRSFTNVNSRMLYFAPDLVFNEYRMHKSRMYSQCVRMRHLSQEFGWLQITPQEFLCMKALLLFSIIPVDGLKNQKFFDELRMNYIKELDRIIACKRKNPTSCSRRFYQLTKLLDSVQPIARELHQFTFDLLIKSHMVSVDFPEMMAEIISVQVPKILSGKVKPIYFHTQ
# Summary of the method: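 AR and β-actin levels were read by Western blot with ECL detection, loading 30 μg lysate protein per well. Before lysis, VCaP cells seeded at 5×10^5/well and grown overnight were exposed to compound for 16 h, two wells per concentration, keeping DMSO at 0.1%.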
# [3] = biological target: T1, androgen receptor (AR); experiment: Degradation of androgen receptor (AR) protein in VCaP cells by ELISA
Compound,inhibition at 0.1 µM [2],further results
"[2H]C([2H])([2H])N(C(=O)c1ccc(N2CCC(CN3CCN(c4cc5c(cc4F)CN(C4CCC(=O)NC4=O)C5=O)CC3)CC2)nc1)[C@H]1CC[C@H](Oc2ccc(C#N)c(Cl)c2)CC1 (stereo partly drawn) [Compound 306, N-((1r,4r)-4-(3-chloro-4-cyanophenoxy)cyclohexyl)-6-(4-((4-(2-(2,6-dioxopiperidin-3-yl)-6-fluoro-3-oxoisoindol-5-yl)piperazin-1-yl)methyl)piperidin-1-yl)-N-deuteromethylnicotinamide]",–,IC50 ([1]; 144 h): > 1 µM
"CN1C(=O)CCC(N2Cc3cc(F)c(N4CCN(CC5CCN(c6ccc7c(n6)CN(C6CCC(Oc8ccc(C#N)c(Cl)c8)CC6)C7=O)CC5)CC4)cc3C2=O)C1=O (stereo not drawn) [Compound 307, 2-chloro-4-((1r,4r)-4-(2-(4-((4-(6-fluoro-2-(1-methyl-2,6-dioxopiperidin-3-yl)-3-oxoisoindolin-5-yl)piperazin-1-yl)methyl)piperidin-1-yl)-5-oxo-5H-pyrrolo[3,4-b]pyridin-6(7H)-yl)cyclohexyl)oxy)benzonitrile]",–,IC50 [1]: 0.5 to 1 µM
"CC1(C)C(Oc2ccc(C#N)c(Cl)c2)C(C)(C)C1N1Cc2nc(N3CCC(CN4CCN(c5ccc6c(c5)C(=O)N([C@@H]5CCC(=O)NC5=O)C6=O)CC4)CC3)ccc2C1=O (stereo partly drawn) [Compound 202, 2-chloro-4-((1r,3r)-3-(2-(4-((4-(2,6-dioxopiperidin-3-yl-1,3-dioxoisoindolin-5-yl)piperazin-1-yl)methyl)piperidin-1-yl)-5-oxo-5,7-dihydro-6H-pyrrolo[3,4-b]pyridin-6-yl)-2,2,4,4-tetramethylcyclobutoxy)benzonitrile]",–,IC50 [1]: 0.1 to 0.5 µM
N#Cc1ccc(O[C@H]2CC[C@H](NC(=O)c3cnc(N4CCC(CN5CCC6(CC5)CN(c5cc7c(cc5F)C(=O)N(C5CCC(=O)NC5=O)C7=O)C6)CC4)nn3)CC2)cc1Cl (stereo partly drawn) [Compound 158],> 80%,"DC50 ([3]; AR degradation, VCaP cells, 16 h, ELISA, Table 3-2, read-out: DC50): < 0.01 µM; Dmax ([3]; VCaP): > 80%"
"N#Cc1ccc(O[C@H]2CC[C@H](NC(=O)c3cnc(N4CCN([C@@H]5C[C@@H]6CN(c7cc8c(cc7F)C(=O)N(C7CCC(=O)NC7=O)C8=O)C[C@@H]6C5)CC4)nc3)CC2)cc1Cl (stereo partly drawn) [Compound 299, N-((1r,4r)-4-(3-chloro-4-cyanophenoxy)cyclohexyl)-2-(4-((3aR,5R,6aS)-2-(2-(2,6-dioxopiperidin-3-yl)-6-fluoro-1,3-dioxoisoindolin-5-yl)octahydrocyclopenta[c]pyrrol-5-yl)piperazin-1-yl)pyrimidine-5-formamide]",< 25%,–
N#Cc1ccc(O[C@H]2CC[C@H](NC(=O)c3cnc(N4CC(CN5CC6CN(c7cc8c(cc7F)C(=O)N(C7CCC(=O)NC7=O)C8=O)CC6C5)C4)cn3)CC2)cc1Cl (stereo partly drawn) [Compound 138],25 to 49%,–
"N#Cc1ccc(O[C@H]2CC[C@H](NC(=O)c3cnc(N4CCC(CN5CC6CN(c7cc8c(cc7F)C(=O)N(C7CCC(=O)NC7=O)C8=O)CC6C5)CC4)cn3)CC2)cc1Cl (stereo partly drawn) [Compound 255, N-((1r,4r)-4-(3-chloro-4-cyanophenoxy)cyclohexyl)-5-(4-((5-(2-(2,6-dioxopiperidin-3-yl)-6-fluoro-1,3-dioxoisoindolin-5-yl)Hexahydropyrrolo[3,4-c]pyrrol-2(1H)-yl)methyl)piperidin-1-yl)pyrazine-2-carboxamide]",50 to 79%,–
N#Cc1ccc(O[C@H]2CC[C@H](N3Cc4nc(NC5CCN(CC6CCN(c7ccc8c(c7)C(=O)N(C7CCC(=O)NC7=O)C8=O)CC6)CC5)ccc4C3=O)CC2)cc1Cl (stereo partly drawn) [Compound 172],< 25%,–
"N#Cc1ccc(O[C@H]2CC[C@H](NC(=O)c3cnc(N4CCC(N5CC6CN(c7ccc8c(c7)C(=O)N(C7CCC(=O)NC7=O)C8=O)CC6C5)CC4)cn3)CC2)cc1Cl (stereo partly drawn) [Compound 63, N-((1r,4r)-4-(3-chloro-4-cyanophenoxy)cyclohexyl)-5-(4-(5-(2-(2,6-dioxopiperidin-3-yl)-1,3-dioxoisoindolin-5-yl)hexahydropyrrolo[3,4-c]pyrrol-2(1H)-yl)piperidin-1-yl)pyrazine-2-carboxamide]",50 to 79%,–
"CC1(C)[C@H](Oc2ccc(C#N)c(Cl)c2)C(C)(C)[C@H]1N1Cc2nc(C#CC3CCN(C4CCN(c5ccc6c(c5)C(=O)N(C5CCC(=O)NC5=O)C6=O)CC4)CC3)ccc2C1=O (stereo partly drawn) [Compound 315, 2-chloro-4-((1r,3r)-3-(2-((1′-(2-(2,6-dioxopiperidin-3-yl)-1,3-dioxoisoindolin-5-yl)-[1,4′-dipiperidine]4-yl)ethynyl)-5-oxo-5,7-dihydro-6H-pyrrolo[3,4-b]pyridin-6-yl)-2,2,4,4-tetramethylcyclobutoxy)benzonitrile]",< 25%,–
N#Cc1ccc(O[C@H]2CC[C@H](N3Cc4nc(N5CCC(CN6CCC(Nc7ccc8c(c7)C(=O)N(C7CCC(=O)NC7=O)C8=O)CC6)CC5)ccc4C3=O)CC2)cc1Cl (stereo partly drawn) [Compound 173],< 25%,–
"N#Cc1ccc(O[C@H]2CC[C@H](NC(=O)c3ccc(N4CC5CN(CC6CCN(c7cc8c(cc7F)C(=O)N(C7CCC(=O)NC7=O)C8=O)CC6)CC5C4)nn3)CC2)cc1Cl (stereo partly drawn) [Compound 259, N-((1r,4r)-4-(3-chloro-4-cyanophenoxy)cyclohexyl)-6-(5-((1-(2-(2,6-dioxopiperidin-3-yl)-6-fluoro-1,3-dioxoisoindolin-5-yl)piperidine-4-yl)methyl)hexahydropyrrolo[3,4-c]pyrrol-2(11H)-yl)pyridazine-3-carboxamide]",> 80%,–
"N#Cc1ccc(OC2CCC(NC(=O)c3ncc(N4C[C@H]5CC(N6CCN(c7cc8c(cc7F)C(=O)N(C7CCC(=O)NC7=O)C8=O)CC6)C[C@H]5C4)cn3)CC2)cc1Cl (stereo partly drawn) [Compound 294, N-((1r,4r)-4-(3-chloro-4-cyanophenoxy)cyclohexyl)-5-((3aR,5R,6aS)-5-(4-(2-(2,6-dioxopiperidin-3-yl)-6-fluoro-1,3-dioxoisoindolin-5-yl)piperazin-1-yl)hexahydrocyclopenta[c]pyrrole-2(1H)-yl)pyrimidine-2-carboxamide]",–,% degradation [2]: C (49%-25%)
CC1(C)[C@H](Oc2ccc(C#N)c(Cl)c2)C(C)(C)[C@H]1N1Cc2nc(C#CC3CCN(CC4CN(c5cc6c(cc5F)C(=O)N(C5CCC(=O)NC5=O)C6=O)C4)CC3)ccc2C1=O (stereo partly drawn) [Compound 334],> 80%,–
N#Cc1ccc(O[C@H]2CC[C@H](NC(=O)c3ccc(N4CCC(O[C@@H]5CCN(c6ccc7c(c6)C(=O)N(C6CCC(=O)NC6=O)C7=O)C5)CC4)cc3)CC2)cc1Cl (stereo partly drawn) [Compound 111],< 25%,–
"N#Cc1ccc(OC2CCC(NC(=O)c3ccc(N4C[C@@H]5C(CN6CCN(c7cc8c(cc7F)C(=O)N(C7CCC(=O)NC7=O)C8=O)CC6)[C@@H]5C4)nn3)CC2)cc1Cl (stereo partly drawn) [Compound 178, N-((1r,4R)-4-(3-chloro-4-cyanophenoxy)cyclohexyl)-6-((1R,5S,6S)-6-((4-(2-(2,6-dioxopiperidin-3-yl)-6-fluoro-1,3-dioxoisoindolin-5-yl)piperazin-1-yl)methyl)-3-azabicyclo[3.1.0]hexan-3-yl)pyridazine-3-formamide]",–,% degradation [2]: B (79%-50%)
"N#Cc1ccc(O[C@H]2CC[C@H](NC(=O)c3cnc(N4CCC(CN5CC6CN(c7cc8c(cc7F)C(=O)N(C7CCC(=O)NC7=O)C8=O)CC6C5)CC4)nc3)CC2)cc1Cl (stereo partly drawn) [Compound 257, N-((1r,4r)-4-(3-chloro-4-cyanophenoxy)cyclohexyl)-2-(4-((5-(2-(2,6-dioxopiperidin-3-yl)-6-fluoro-1,3-dioxoisoindolin-5-yl)Hexahydropyrrolo[3,4-c]pyrrol-2(1H)-yl)methyl)piperidin-1-yl)pyrimidine-5-carboxamide]",25 to 49%,–
"N#Cc1ccc(O[C@H]2C[C@@H]3CN(C(=O)c4ccc(N5CCC(CN6CCN(c7ccc8c(c7)C(=O)N(C7CCC(=O)NC7=O)C8=O)CC6)CC5)nn4)C[C@@H]3C2)cc1Cl (stereo partly drawn) [Compound 175, 2-chloro-4-(((3aR,5s,6aS)-2-(6-(4-((4-(2-(2,6-dioxopiperidin-3-yl)-1,3-dioxoisoindolin-5-yl)piperazin-1-yl)methyl)piperidin-1-yl)pyridazine-3-carbonyl)octahydrocyclopenta[c]pyrrol-5-yl)oxy)benzonitrile]",< 25%,–
"N#Cc1ccc(Oc2ccc(NC(=O)c3ccc(N4CCC(CN5CCN(c6cc7c(cc6F)C(=O)N(C6CCC(=O)NC6=O)C7=O)CC5)CC4)nn3)cc2)cc1Cl (stereo not drawn) [Compound 227, N-(4-(3-chloro-4-cyanophenoxy)phenyl)-6-(4-((4-(2-(2,6-dioxopiperidin-3-yl)-6-fluoro-1,3-dioxoisoindolin-5-yl)piperazin-1-yl)methyl)piperidin-1-yl)pyridazine-3-formamide]",25 to 49%,–

# Reference: patent publication US20230091225A1, “Bifunctional chimeric heterocyclic compounds for targeted degradation of androgen receptors and use thereof” (HINOVA PHARMACEUTICALS INC., priority 2019, published 2023)
